Source: US9493446B2, “Orexin receptor antagonists which are [ortho bi-(hetero-)aryl]-[2-(meta bi-(hetero-)aryl)-pyrrolidin-1-yl]-methanone derivatives” (Actelion Pharmaceuticals Ltd, priority 2012, dated 2016)
Read-outs that look alike come from different tables or passages of the source.

How the values were obtained:
orexin-1 = orexin-1 (Homo sapiens (Human), UniProt O43613); test: Intracellular calcium measurement (FLIPR), CHO cells expressing human orexin-1 receptor, 3 nM orexin-A; assay type: cell-based; settings: read-out: IC50 OX1
orexin-1, sequence (O43613 whole entry): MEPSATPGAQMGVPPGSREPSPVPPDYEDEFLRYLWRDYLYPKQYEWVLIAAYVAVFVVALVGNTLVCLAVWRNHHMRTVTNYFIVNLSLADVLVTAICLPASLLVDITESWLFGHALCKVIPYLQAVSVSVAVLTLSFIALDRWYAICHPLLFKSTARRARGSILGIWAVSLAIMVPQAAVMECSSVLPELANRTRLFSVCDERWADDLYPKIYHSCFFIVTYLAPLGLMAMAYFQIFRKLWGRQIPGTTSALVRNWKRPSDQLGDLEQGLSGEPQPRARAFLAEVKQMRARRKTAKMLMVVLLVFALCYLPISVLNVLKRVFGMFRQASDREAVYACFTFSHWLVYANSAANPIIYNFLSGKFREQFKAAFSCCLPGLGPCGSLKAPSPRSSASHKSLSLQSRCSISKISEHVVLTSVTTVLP
Procedure, shortened: (§1)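 HBSS buffer with 0.1% BSA, NaHCO3 and 20 mM HEPES carries both compounds and agonist. Dye: fluo-4 AM (3 μM) with 5 mM probenecid. Compound exposure 120 min; peak signal scored against uninhibited orexin-A response.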

human orexin-2 receptor = human orexin-2 receptor (Homo sapiens (Human), UniProt O43614); test: Intracellular calcium measurement (FLIPR), CHO cells expressing human orexin-2 receptor, 3 nM orexin-A; assay type: cell-based; settings: read-out: IC50 OX2
human orexin-2 receptor, sequence (O43614 whole entry): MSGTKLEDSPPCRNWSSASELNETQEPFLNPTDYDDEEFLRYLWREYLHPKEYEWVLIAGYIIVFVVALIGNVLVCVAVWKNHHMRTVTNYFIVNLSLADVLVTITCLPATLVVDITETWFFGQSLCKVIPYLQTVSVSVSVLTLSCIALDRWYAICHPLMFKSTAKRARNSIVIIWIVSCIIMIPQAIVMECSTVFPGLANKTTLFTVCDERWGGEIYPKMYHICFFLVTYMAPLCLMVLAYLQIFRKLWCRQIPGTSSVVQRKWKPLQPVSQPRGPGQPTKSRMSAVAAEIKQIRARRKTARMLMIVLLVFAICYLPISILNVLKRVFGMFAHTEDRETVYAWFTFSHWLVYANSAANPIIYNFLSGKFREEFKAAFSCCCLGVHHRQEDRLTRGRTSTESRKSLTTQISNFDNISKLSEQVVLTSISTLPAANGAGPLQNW
Procedure, shortened: as §1

[1] = CHO cells expressing human orexin-1 receptor, FLIPR, 3 nM orexin-A, geometric mean if determined several times
[2] = CHO cells expressing human orexin-2 receptor, FLIPR, 3 nM orexin-A, geometric mean if determined several times

| IC50 (orexin-1; [1]) [nM] | IC50 (human orexin-2 receptor; [2]) [nM] | SMILES | IC50 (orexin-1) [nM] | IC50 (human orexin-2 receptor) [nM] |
| --- | --- | --- | --- | --- |
| 340 | 43 | COc1c(F)cccc1-c1noc([C@@H]2CCCN2C(=O)c2ccc(C(F)(F)F)cc2-n2nccn2)n1 [compound 205, {(S)-2-[3-(3-Fluoro-2-methoxy-phenyl)-[1,2,4]oxadiazol-5-yl]-pyrrolidin-1-yl}-(2-[1,2,3]triazol-2-yl-4-trifluoromethyl-phenyl)-methanone] | – | – |
| 409 | 10 | COc1cc(C(=O)N2CCC[C@H]2c2nc(-c3cccc(F)c3OC)no2)c(-n2nccn2)cc1F [compound 206, {(S)-2-[3-(3-Fluoro-2-methoxy-phenyl)-[1,2,4]oxadiazol-5-yl]-pyrrolidin-1-yl}-(4-fluoro-5-methoxy-2-[1,2,3]triazol-2-yl-phenyl)-methanone] | – | – |
| 1810 | 565 | COc1c(F)cccc1-c1noc([C@@H]2CCCN2C(=O)c2cc(F)cc(C)c2-n2nccn2)n1 [compound 207, {(S)-2-[3-(3-Fluoro-2-methoxy-phenyl)-[1,2,4]oxadiazol-5-yl]-pyrrolidin-1-yl}-(5-fluoro-3-methyl-2-[1,2,3]triazol-2-yl-phenyl)-methanone] | – | – |
| 225 | 20 | COc1cc(C(=O)N2CCC[C@H]2c2nc(-c3cccc(F)c3OC)no2)c(-n2nccn2)cc1OC [compound 208, (4,5-Dimethoxy-2-[1,2,3]triazol-2-yl-phenyl)-{(S)-2-[3-(3-fluoro-2-methoxy-phenyl)-[1,2,4]oxadiazol-5-yl]-pyrrolidin-1-yl}-methanone] | – | – |
| 56 | 21 | CCOc1ncccc1-c1noc([C@@H]2CCCN2C(=O)c2cc(C)cc(C)c2-n2nccn2)n1 [compound 209, (3,5-Dimethyl-2-[1,2,3]triazol-2-yl-phenyl)-{(S)-2-[3-(2-ethoxy-pyridin-3-yl)-[1,2,4]oxadiazol-5-yl]-pyrrolidin-1-yl}-methanone] | – | – |
| 81 | 37 | CCOc1ncccc1-c1noc([C@@H]2CCCN2C(=O)c2ccc(C)cc2-n2nccn2)n1 [compound 211, {(S)-2-[3-(2-Ethoxy-pyridin-3-yl)-[1,2,4]oxadiazol-5-yl]-pyrrolidin-1-yl}-(4-methyl-2-[1,2,3]triazol-2-yl-phenyl)-methanone] | – | – |
| 6 | 3 | CCOc1ncccc1-c1noc([C@@H]2CCCN2C(=O)c2cc(C)c(C)cc2-n2nccn2)n1 [compound 212, (4,5-Dimethyl-2-[1,2,3]triazol-2-yl-phenyl)-{(S)-2-[3-(2-ethoxy-pyridin-3-yl)-[1,2,4]oxadiazol-5-yl]-pyrrolidin-1-yl}-methanone] | – | – |
| 169 | 46 | CCOc1ncccc1-c1noc([C@@H]2CCCN2C(=O)c2nc(C)ccc2-n2nccn2)n1 [compound 213, {(S)-2-[3-(2-Ethoxy-pyridin-3-yl)-[1,2,4]oxadiazol-5-yl]-pyrrolidin-1-yl}-(6-methyl-3-[1,2,3]triazol-2-yl-pyridin-2-yl)-methanone] | – | – |
| 18 | 3 | CCOc1ncccc1-c1noc([C@@H]2CCCN2C(=O)c2cc(OC)c(C)cc2-n2nccn2)n1 [compound 215, {(S)-2-[3-(2-Ethoxy-pyridin-3-yl)-[1,2,4]oxadiazol-5-yl]-pyrrolidin-1-yl}-(5-methoxy-4-methyl-2-[1,2,3]triazol-2-yl-phenyl)-methanone] | – | – |
| 76 | 27 | CCOc1ncccc1-c1noc([C@@H]2CCCN2C(=O)c2cccc(F)c2-c2ccn[nH]2)n1 [compound 216, {(S)-2-[3-(2-Ethoxy-pyridin-3-yl)-[1,2,4]oxadiazol-5-yl]-pyrrolidin-1-yl}-[3-fluoro-2-(2H-pyrazol-3-yl)-phenyl]-methanone] | – | – |
| 40 | 14 | CCOc1ncccc1-c1noc([C@@H]2CCCN2C(=O)c2cc(C)ccc2-c2ccccn2)n1 [compound 217, {(S)-2-[3-(2-Ethoxy-pyridin-3-yl)-[1,2,4]oxadiazol-5-yl]-pyrrolidin-1-yl}-(5-methyl-2-pyridin-2-yl-phenyl)-methanone] | – | – |
| 331 | 99 | CCOc1ncccc1-c1noc([C@@H]2CCCN2C(=O)c2ccccc2-n2nccn2)n1 [compound 218, {(S)-2-[3-(2-Ethoxy-pyridin-3-yl)-[1,2,4]oxadiazol-5-yl]-pyrrolidin-1-yl}-(2-[1,2,3]triazol-2-yl-phenyl)-methanone] | – | – |
| 53 | 16 | CCOc1ncccc1-c1noc([C@@H]2CCCN2C(=O)c2cc(OC)ccc2-n2nccn2)n1 [compound 220, {(S)-2-[3-(2-Ethoxy-pyridin-3-yl)-[1,2,4]oxadiazol-5-yl]-pyrrolidin-1-yl}-(5-methoxy-2-[1,2,3]triazol-2-yl-phenyl)-methanone] | – | – |
| 351 | 121 | CCOc1ncccc1-c1noc([C@@H]2CCCN2C(=O)c2ccc(C(F)(F)F)cc2-n2nccn2)n1 [compound 222, {(S)-2-[3-(2-Ethoxy-pyridin-3-yl)-[1,2,4]oxadiazol-5-yl]-pyrrolidin-1-yl}-(2-[1,2,3]triazol-2-yl-4-trifluoromethyl-phenyl)-methanone] | – | – |
| 253 | 17 | CCOc1ncccc1-c1noc([C@@H]2CCCN2C(=O)c2cc(OC)c(F)cc2-n2nccn2)n1 [compound 223, {(S)-2-[3-(2-Ethoxy-pyridin-3-yl)-[1,2,4]oxadiazol-5-yl]-pyrrolidin-1-yl}-(4-fluoro-5-methoxy-2-[1,2,3]triazol-2-yl-phenyl)-methanone] | – | – |
| 19 | 6 | CCOc1ncccc1-c1noc([C@@H]2CCCN2C(=O)c2cc(C)ccc2-c2ncco2)n1 [compound 224, {(S)-2-[3-(2-Ethoxy-pyridin-3-yl)-[1,2,4]oxadiazol-5-yl]-pyrrolidin-1-yl}-(5-methyl-2-oxazol-2-yl-phenyl)-methanone] | – | – |
| 964 | 600 | CCOc1ncccc1-c1noc([C@@H]2CCCN2C(=O)c2cc(F)cc(C)c2-n2nccn2)n1 [compound 225, {(S)-2-[3-(2-Ethoxy-pyridin-3-yl)-[1,2,4]oxadiazol-5-yl]-pyrrolidin-1-yl}-(5-fluoro-3-methyl-2-[1,2,3]triazol-2-yl-phenyl)-methanone] | – | – |
| 160 | 148 | CCOc1ncccc1-c1noc([C@@H]2CCCN2C(=O)c2cc(OC)c(OC)cc2-n2nccn2)n1 [compound 226, (4,5-Dimethoxy-2-[1,2,3]triazol-2-yl-phenyl)-{(S)-2-[3-(2-ethoxy-pyridin-3-yl)-[1,2,4]oxadiazol-5-yl]-pyrrolidin-1-yl}-methanone] | – | – |
| 852 | 425 | COc1ccccc1-c1noc([C@@H]2CCCN2C(=O)c2ccccc2-n2nccn2)n1 [compound 227, {(S)-2-[3-(2-Methoxy-phenyl)-[1,2,4]oxadiazol-5-yl]-pyrrolidin-1-yl}-(2-[1,2,3]triazol-2-yl-phenyl)-methanone] | – | – |
| 163 | 240 | COc1ccccc1-c1noc([C@@H]2CCCN2C(=O)c2ccc(C)cc2-n2nccn2)n1 [compound 229, {(S)-2-[3-(2-Methoxy-phenyl)-[1,2,4]oxadiazol-5-yl]-pyrrolidin-1-yl}-(4-methyl-2-[1,2,3]triazol-2-yl-phenyl)-methanone] | – | – |
| 23 | 15 | COc1ccccc1-c1noc([C@@H]2CCCN2C(=O)c2cc(C)c(C)cc2-n2nccn2)n1 [compound 230, (4,5-Dimethyl-2-[1,2,3]triazol-2-yl-phenyl)-{(S)-2-[3-(2-methoxy-phenyl)-[1,2,4]oxadiazol-5-yl]-pyrrolidin-1-yl}-methanone] | – | – |
| 66 | 15 | COc1cc(C(=O)N2CCC[C@H]2c2nc(-c3ccccc3OC)no2)c(-n2nccn2)cc1C [compound 231, (5-Methoxy-4-methyl-2-[1,2,3]triazol-2-yl-phenyl)-{(S)-2-[3-(2-methoxy-phenyl)-[1,2,4]oxadiazol-5-yl]-pyrrolidin-1-yl}-methanone] | – | – |
| 134 | 78 | COc1ccc(-n2nccn2)c(C(=O)N2CCC[C@H]2c2nc(-c3ccccc3OC)no2)c1 [compound 232, {(S)-2-[3-(2-Methoxy-phenyl)-[1,2,4]oxadiazol-5-yl]-pyrrolidin-1-yl}-(5-methoxy-2-[1,2,3]triazol-2-yl-phenyl)-methanone] | – | – |
| 1410 | 341 | COc1ccccc1-c1noc([C@@H]2CCCN2C(=O)c2cc(F)ccc2-n2nccn2)n1 [compound 233, (5-Fluoro-2-[1,2,3]triazol-2-yl-phenyl)-{(S)-2-[3-(2-methoxy-phenyl)-[1,2,4]oxadiazol-5-yl]-pyrrolidin-1-yl}-methanone] | – | – |
| 361 | 992 | COc1ccccc1-c1noc([C@@H]2CCCN2C(=O)c2nc(C)ccc2-n2nccn2)n1 [compound 235, {(S)-2-[3-(2-Methoxy-phenyl)-[1,2,4]oxadiazol-5-yl]-pyrrolidin-1-yl}-(6-methyl-3-[1,2,3]triazol-2-yl-pyridin-2-yl)-methanone] | – | – |

| SMILES | IC50 (orexin-1; [1]) [nM] | IC50 (human orexin-2 receptor; [2]) [nM] | IC50 (orexin-1) [nM] | IC50 (human orexin-2 receptor) [nM] |
| --- | --- | --- | --- | --- |
| COc1ccccc1-c1noc([C@@H]2CCCN2C(=O)c2cc(Cl)ccc2-n2nccn2)n1 [compound 228] | – | 134 | 272 | – |
| O=C(c1cc(Cl)ccc1-n1nccn1)N1CCC[C@H]1c1nc(-c2ccccc2Cl)no1 [compound 236] | 1850 | – | – | 150 |
| Cc1ccc(C(=O)N2CCC[C@H]2c2nc(-c3ccccc3Cl)no2)c(-n2nccn2)c1 [compound 237] | 844 | 186 | – | – |
| Cc1cc(C(=O)N2CCC[C@H]2c2nc(-c3ccccc3Cl)no2)c(-n2nccn2)cc1C [compound 238] | 104 | 16 | – | – |
| COc1cc(C(=O)N2CCC[C@H]2c2nc(-c3ccccc3Cl)no2)c(-n2nccn2)cc1C [compound 239] | – | 24 | 378 | – |
| COc1ccc(-n2nccn2)c(C(=O)N2CCC[C@H]2c2nc(-c3ccccc3Cl)no2)c1 [compound 240] | 1330 | 147 | – | – |
